Reference: patent publication US7863271B2, “2-aminobenzoxazole carboxamides as 5HT3 modulators” (Albany Molecular Research, Inc., priority 2006, dated 2011)
Counter-ions that a name gives are not always drawn.

The compounds below were run against T1, 5-HT3 (Homo sapiens, UniProt P46098) (assay: Compound affinity for the human 5-HT3 receptor (Assay B), SPA radioligand binding with [9-methyl-3H]BRL-43694). Settings: Assay B (method B unless otherwise annotated); read-out: 5-HT3 Ki.
T1 sequence (P46098 24-478): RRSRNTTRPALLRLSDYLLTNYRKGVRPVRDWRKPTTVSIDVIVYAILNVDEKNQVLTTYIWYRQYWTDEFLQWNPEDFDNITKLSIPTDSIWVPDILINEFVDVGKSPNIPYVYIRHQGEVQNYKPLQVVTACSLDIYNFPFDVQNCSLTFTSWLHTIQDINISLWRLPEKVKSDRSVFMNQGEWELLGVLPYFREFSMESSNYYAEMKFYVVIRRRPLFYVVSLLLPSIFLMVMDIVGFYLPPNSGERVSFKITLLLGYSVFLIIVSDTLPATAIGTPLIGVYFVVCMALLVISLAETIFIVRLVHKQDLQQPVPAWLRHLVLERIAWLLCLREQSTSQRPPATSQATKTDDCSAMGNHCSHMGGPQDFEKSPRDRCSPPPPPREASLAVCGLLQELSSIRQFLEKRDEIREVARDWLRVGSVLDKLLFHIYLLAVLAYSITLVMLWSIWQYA
Design: purchased Perkin Elmer
Procedure, shortened: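 Ten competitor concentrations in duplicate; specific binding (total minus nonspecific) fitted for IC50, converted to Ki by Cheng-Prusoff.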

First: CC(C)[C@H]1CNCCN1c1nc2c(C(=O)NC3CC4CCCC(C3)N4C)cccc2o1 (stereo partly drawn) [Example 76, Endo-N-(9-Methyl-9-azabicyclo[3.3.1]nonan-3-yl)-2-((S)-2-isopropylpiperazin-1-yl)benzoxazole-4-carboxamide Hydrochloride]
Second: CC(C)C[C@H]1CNCCN1c1nc2c(C(=O)NC3CC4CCCC(C3)N4C)cccc2o1 (stereo partly drawn) [Example 77, Endo-N-(9-Methyl-9-azabicyclo[3.3.1]nonan-3-yl)-2-((S)-2-isobutylpiperazine-1-yl)benzoxazole-4-carboxamide Hydrochloride]
The Ki of the first is 1.5-fold higher: 9.8 nM for the first, 6.4 nM for the second.

Compared with CC(C)[C@H]1CN(c2nc3c(C(=O)NC4CC5CCCC(C4)N5C)cccc3o2)CCN1 (some centres unmarked) [Example 78, Hydrochloride], CC1CN(c2nc3c(C(=O)N[C@H]4C[C@H]5CCC[C@@H](C4)N5C)cccc3o2)CCN1 (stereo partly drawn) [Example 95, Endo-N-(9-Methyl-9-azabicyclo[3.3.1]nonan-3-yl)-2-(3-methylpiperazin-1-yl)benzoxazole-4-carboxamide Hydrochloride] is 2-fold higher in Ki: 25.8 nM for the first, 52.4 nM for the second.

First: CN1[C@@H]2CCC[C@H]1C[C@@H](NC(=O)c1cccc3oc(N4CCn5ccnc5C4)nc13)C2 [Example 79, Endo-N-(9-Methyl-9-azabicyclo[3.3.1]nonan-3-yl)-2-(5,6-dihydroimidazo[1,2-a]pyrazin-7(8H)-yl)benzoxazole-4-carboxamide Hydrochloride]
Second: CN1[C@@H]2CCC[C@H]1C[C@@H](NC(=O)c1cccc3oc(N4CCNC(=O)C4)nc13)C2 [Example 86, Endo-N-(9-Methyl-9-azabicyclo[3.3.1]nonan-3-yl)-2-(3-oxopiperazine-1-yl)benzoxazole-4-carboxamide Hydrochloride]
The Ki of the first is 2.3-fold lower: 29.3 nM for the first, 66.2 nM for the second.

Compared with CN1C2CCCC1CC(NC(=O)c1cc(Cl)cc3oc(N4CCOC[C@@H]4C(C)(C)C)nc13)C2 (stereo partly drawn) [Example 80, Endo N-(9-Methyl-9-azabicyclo[3.3.1]nonan-3-yl)-2-((S)-3-tert-butylmorpholino)-6-chloro-benzoxazole-4-carboxamide Hydrochloride], C[C@H]1COCCN1c1nc2c(C(=O)NC3CC4CCCC(C3)N4C)cc(Cl)cc2o1 (stereo partly drawn) [Example 106, Endo-6-Chloro-N-(9-methyl-9-azabicyclo[3.3.1]nonan-3-yl)-2-((S)-3-methylmorpholino)benzoxazole-4-carboxamide Hydrochloride] is 2.3-fold lower in Ki: 29.4 nM for the first, 12.6 nM for the second.

Compared with C[C@H]1COC[C@H](C)N1c1nc2c(C(=O)NC3CC4CCCC(C3)N4)cccc2o1 (stereo partly drawn) [Example 81, Endo-N-(9-Azabicyclo[3.3.1]nonan-3-yl)-2-((3S,5S)-3,5-dimethylmorpholino)benzoxazole-4-carboxamide Hydrochloride], C[C@H]1COC[C@H](C)N1c1nc2c(C(=O)NC3CC4CCC(C3)N4C)cccc2o1 (stereo partly drawn) [Example 101, N-(8-Methyl-8-azabicyclo[3.2.1]octan-3-yl)-2-(3S,5S)-3,5-dimethylmorpholinobenzoxazole-4-carboxamide Hydrochloride] is 6.5-fold lower in Ki: 16.8 nM for the first, 2.6 nM for the second. The second binds more tightly here.

First: CN1[C@@H]2CCC[C@H]1C[C@@H](NC(=O)c1cccc3oc(N4CCS(=O)(=O)CC4)nc13)C2 [Example 82, Endo-N-(9-Methyl-9-azabicyclo[3.3.1]nonan-3-yl)-2-(thiomorpholine 1,1-dioxide)benzoxazole-4-carboxamide Hydrochloride]
Second: CN1[C@@H]2CCC[C@H]1C[C@@H](NC(=O)c1cccc3oc(N4CCC(=O)CC4)nc13)C2 [Example 92, Endo-N-(9-methyl-9-azabicyclo[3.3.1]nonan-3-yl)-2-(4-oxopiperidin-1-yl)benzoxazole-4-carboxamide Hydrochloride]
The Ki of the first is 6.2-fold higher: 132 nM for the first, 21.2 nM for the second. The second binds more tightly here.

Compared with CCN(C)c1nc2c(C(=O)N[C@@H]3CN4CCC3CC4)cccc2o1 [Example 83, (S)—N-(quinuclidine-8-yl)-2-(ethyl(methyl)amino)benzoxazole-4-carboxamide Hydrochloride], CC(C)N(C)c1nc2c(C(=O)N[C@@H]3CN4CCC3CC4)cccc2o1 [Example 85, (S)—N-(quinuclidine-8-yl)-2-(isopropyl(methyl)amino)benzoxazole-4-carboxamide Hydrochloride] is 4.2-fold higher in Ki: 6.8 nM for the first, 28.9 nM for the second.

Going from CC[C@H]1CNCCN1c1nc2c(C(=O)NC3CC4CCCC(C3)N4C)cccc2o1 (stereo partly drawn) [Example 84, Endo-N-(9-Methyl-9-azabicyclo[3.3.1]nonan-3-yl)-2-((S)-2-ethylpiperazine-1-yl)benzoxazole-4-carboxamide Hydrochloride] to CN1C2CCCC1CC(NC(=O)c1cccc3oc(N4CCNC[C@@H]4C(C)(C)C)nc13)C2 (stereo partly drawn) [Example 96, Endo-N-(9-Methyl-9-azabicyclo[3.3.1]nonan-3-yl)-2-((S)-2-tert-butylpiperazin-1-yl)benzoxazole-4-carboxamide Hydrochloride], the Ki falls from 11.3 nM to 7.5 nM (1.5-fold). The second binds more tightly here.

Compared with CC[C@H]1COC[C@H](C)N1c1nc2c(C(=O)NC3CC4CCCC(C3)N4C)cccc2o1 (stereo partly drawn) [Example 87, Endo-N-(9-Methyl-9-azabicyclo[3.3.1]nonan-3-yl)-2-((3 S,5S)-3-ethyl-5-methylmorpholino)benzoxazole-4-carboxamide Hydrochloride], CN1C2CCCC1CC(NC(=O)c1cccc3oc(N4CCOC[C@@H]4CO)nc13)C2 (stereo partly drawn) [Example 94, Endo-N-(9-Methyl-9-azabicyclo[3.3.1]nonan-3-yl)-2-((S)-3-(hydroxymethyl)morpholino)benzoxazole-4-carboxamide Hydrochloride] is 28-fold higher in Ki: 1 nM for the first, 27.5 nM for the second. The first binds more tightly here.

Compared with C[C@H]1COC[C@H](C)N1c1nc2c(C(=O)NC3CC4COCC(C3)N4C)cccc2o1 (stereo partly drawn) [Example 88, Endo-N-(9-Methyl-3-oxa-9-azabicyclo[3.3.1]nonan-7-yl) 2-((3 S,5S)-3,5-dimethylmorpholino)benzoxazole-4-carboxamide Hydrochloride], C[C@H]1COC[C@H](C)N1c1nc2c(C(=O)N[C@@H]3CN4CCC3CC4)cccc2o1 [Example 90, (S)—N-(quinuclidine-8-yl)-2-((3S,5S)-3,5-Dimethylmorpholino)benzoxazole-4-carboxamide Hydrochloride] is 2.9-fold lower in Ki: 19.9 nM for the first, 6.8 nM for the second. The second binds more tightly here.

First: COC1CCN(c2nc3c(C(=O)N[C@H]4C[C@H]5CCC[C@@H](C4)N5C)cccc3o2)CC1 [Example 89, Endo-N-(9-Methyl-9-azabicyclo[3.3.1]nonan-3-yl)-2-(4-methoxypiperidin-1-yl)benzoxazole-4-carboxamide Hydrochloride]
Second: CN1[C@@H]2CCC[C@H]1C[C@@H](NC(=O)c1cccc3oc(N4CCC5(CC4)OCCO5)nc13)C2 [Example 91, Endo-N-(9-Methyl-9-azabicyclo[3.3.1]nonan-3-yl)-2-(1,4-dioxa-8-azaspiro[4.5]decan-8-yl)benzoxazole-4-carboxamide Hydrochloride]
The Ki of the first is 2.5-fold higher: 36.9 nM for the first, 14.5 nM for the second.

Going from C[C@H]1CN(Cc2ccccc2)C(=O)[C@H](C)N1c1nc2c(C(=O)NC3CC4CCCC(C3)N4C)cccc2o1 (stereo partly drawn) [Example 97, Endo-N-(9-Methyl-9-azabicyclo[3.3.1]nonan-3-yl)-2-((2S,6S)-4-benzyl-2,6-dimethyl-3-oxopiperazine-1-yl)benzoxazole-4-carboxamide Hydrochloride] to C[C@H]1C(=O)NCCN1c1nc2c(C(=O)NC3CC4CCCC(C3)N4C)cccc2o1 (stereo partly drawn) [Example 98, Endo-N-(9-Methyl-9-azabicyclo[3.3.1]nonan-3-yl)-2-((S)-2-methyl-3-oxopiperazine-1-yl)benzoxazole-4-carboxamide Hydrochloride], the Ki rises from 0.4 nM to 14.6 nM (36-fold). The first binds more tightly here.

C[C@H]1CNC[C@H](C)N1c1nc2c(C(=O)NC3CN4CCC3CC4)cccc2o1 (some centres unmarked) [Example 99, Hydrochloride] and CCNc1nc2c(C(=O)NC3CN4CCC3CC4)cccc2o1 [Example 104, (S)—N-(Quinulidin-8-yl)-2-ethylaminobenzoxazole-4-carboxamide Hydrochloride] are within 1.5-fold of each other in Ki: 13.2 nM for the first, 13.5 nM for the second.

CN1[C@@H]2CCC[C@H]1C[C@@H](NC(=O)c1cccc3oc(N4CCNCC45CCCC5)nc13)C2 [Example 100, Endo-N-(9-Methyl-9-azabicyclo[3.3.1]nonan-3-yl)-2-(6,9-diazaspiro[4.5]decan-6-yl)benzoxazole-4-carboxamide Hydrochloride] and CN1[C@@H]2CCC[C@H]1C[C@@H](NC(=O)c1cccc3oc(N4CCNCC4(C)C)nc13)C2 [Example 102, Endo-N-(9-Methyl-9-azabicyclo[3.3.1]nonan-3-yl)-2-(2,2-dimethylpiperazin-1-yl)benzoxazole-4-carboxamide Hydrochloride] are within 1.5-fold of each other in Ki: 11.4 nM for the first, 15.8 nM for the second.

First: CCNc1nc2c(C(=O)N[C@H]3C[C@H]4CCC[C@@H](C3)N4C)cccc2o1 [Example 105, Hydrochloride]
Second: C[C@H]1CNC[C@H](C)N1c1nc2c(C(=O)NC3CC4CCCC(C3)N4C)ccc(F)c2o1 (stereo partly drawn) [Example 107, Endo-N-(9-Methyl-9-azabicyclo[3.3.1]nonan-3-yl)-2-((2S,6S)-2,6-dimethylpiperazine-1-yl)-7-fluorobenzoxazole-4-carboxamide hydrochloride]
The Ki of the first is 4.3-fold lower: 3.3 nM for the first, 14.2 nM for the second. The first binds more tightly here.

First: CN(C)c1nc2c(C(=O)N[C@@H]3CN4CCC3CC4)cc(Cl)cc2o1 [Example 108, (S)—N-(quinuclidine-8-yl)-6-chloro-2-(dimethylamino)benzoxazole-4-carboxamide Hydrochloride]
Second: O=C(NC1CN2CCC1CC2)c1cccc2oc(NCC(F)(F)F)nc12 (centres unmarked) [Example 109, Hydrochloride]
The Ki of the first is 3.3-fold lower: 14.4 nM for the first, 47.9 nM for the second. The first binds more tightly here.
